The record followed here is ChEMBL document CHEMBL5321272 (J Med Chem, 2023).

Data set [1] can be described thus: Selectivity ratio of IC50 for inhibition of c-KIT (unknown origin) to IC50 for inhibition of FLT3 D835Y mutant (unknown origin).
In data set [2] the target is Receptor-type tyrosine-protein kinase FLT3 (Homo sapiens, UniProt P36888, D835Y).
Description: Inhibition of FLT3 D835Y mutant (unknown origin) using peptide substrate TK-S and ATP as substrate incubated for 1 hr by HTRF assay
For the next data set, the system named is MV4-11. The data set can be described thus: cells. The settings on record: Homo sapiens, MV4-11, 72 h.
Data set [3] has as its system BaF3. Description: Antiproliferative activity against mouse BaF3 cells harboring FLT3 D835F mutant assessed as reduction in cell viability incubated for 72 hrs by CellTiter 96 Aqueous One Solution Cell Proliferation Assay. Format: functional, cell-based.
The subject of data set [4] is BaF3. The data set can be described thus: Antiproliferative activity against mouse BaF3 cells harboring FLT3 F691L mutant assessed as reduction in cell viability incubated for 72 hrs by CellTiter 96 Aqueous One Solution Cell Proliferation Assay. Format: functional, cell-based.
In data set [5] the target is Mast/stem cell growth factor receptor Kit (Homo sapiens, UniProt P10721). Description: Inhibition of c-KIT (unknown origin) using peptide substrate TK-S and ATP as substrate incubated for 1 hr by HTRF assay. Type of data set: toxicity. Background: In TR-FRET formats the signal depends on donor and acceptor labels being close together.
Data set [6] deals with BaF3. Description: Antiproliferative activity against mouse BaF3 cells harboring FLT3 D835V mutant assessed as reduction in cell viability incubated for 72 hrs by CellTiter 96 Aqueous One Solution Cell Proliferation Assay. Format: functional, cell-based.
A further data set deals with hERG (KCNH2) (Homo sapiens, UniProt Q12809). The data set can be described thus: Inhibition of hERG expressed in HEK293 cells at 20 uM by whole cell patch clamp analysis. Type of data set: toxicity, cell-based. The settings on record: HEK293 cells expressing hERG. (In general: The hERG channel carries a current that helps repolarise heart muscle cells.)
Data set [7] concerns the target T1, Serine/threonine-protein kinase Chk1 (Homo sapiens, UniProt O14757).
T1 sequence (O14757 whole entry): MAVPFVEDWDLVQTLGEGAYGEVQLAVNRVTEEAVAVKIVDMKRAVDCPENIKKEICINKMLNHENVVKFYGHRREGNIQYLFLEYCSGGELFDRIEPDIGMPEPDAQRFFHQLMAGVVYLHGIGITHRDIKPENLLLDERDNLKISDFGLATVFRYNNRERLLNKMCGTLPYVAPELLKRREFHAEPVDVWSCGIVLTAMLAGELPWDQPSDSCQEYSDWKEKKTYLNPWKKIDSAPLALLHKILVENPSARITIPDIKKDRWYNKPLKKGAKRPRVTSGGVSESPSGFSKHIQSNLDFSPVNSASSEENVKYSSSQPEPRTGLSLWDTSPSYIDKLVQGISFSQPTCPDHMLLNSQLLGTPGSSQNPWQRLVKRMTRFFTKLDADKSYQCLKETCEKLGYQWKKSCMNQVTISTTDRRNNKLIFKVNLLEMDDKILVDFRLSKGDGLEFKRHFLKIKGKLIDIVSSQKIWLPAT
Description: Inhibition of CHK1 (unknown origin) using peptide substrate S1 and ATP as substrate incubated for 1 hr by HTRF assay

Data set [8] can be described thus: AUC (last) in ICR mouse at 10 mg/kg, po. Type of data set: ADME, organism-based. The arrangement: dose 10 mg/kg, route po. The settings on record: in vivo.
Data set [9] in a line: Tmax in ICR mouse at 10 mg/kg, po. Format: ADME, organism-based. The settings on record: in vivo.
A short description of data set [10]: AUC (infinity) in ICR mouse at 10 mg/kg, po. Format: ADME, organism-based. Set-up: dose 10 mg/kg, route po. The settings on record: in vivo.
Data set [11] in a line: Cmax in ICR mouse at 10 mg/kg, po. Set-up: dose 10 mg/kg, route po. The settings on record: in vivo. Format: ADME, organism-based.
Data set [12] can be described thus: Half life in ICR mouse at 10 mg/kg, po. Format: ADME, organism-based. The settings on record: in vivo.
The nature of data set [13]: MRT (infinity) in ICR mouse at 10 mg/kg, po. The settings on record: in vivo. Format: ADME, organism-based.

Active and inactive are the calls of the source. The calls are words filed in the database; no cut-off is given here.

Sequence of Mast/stem cell growth factor receptor Kit (P10721 whole entry): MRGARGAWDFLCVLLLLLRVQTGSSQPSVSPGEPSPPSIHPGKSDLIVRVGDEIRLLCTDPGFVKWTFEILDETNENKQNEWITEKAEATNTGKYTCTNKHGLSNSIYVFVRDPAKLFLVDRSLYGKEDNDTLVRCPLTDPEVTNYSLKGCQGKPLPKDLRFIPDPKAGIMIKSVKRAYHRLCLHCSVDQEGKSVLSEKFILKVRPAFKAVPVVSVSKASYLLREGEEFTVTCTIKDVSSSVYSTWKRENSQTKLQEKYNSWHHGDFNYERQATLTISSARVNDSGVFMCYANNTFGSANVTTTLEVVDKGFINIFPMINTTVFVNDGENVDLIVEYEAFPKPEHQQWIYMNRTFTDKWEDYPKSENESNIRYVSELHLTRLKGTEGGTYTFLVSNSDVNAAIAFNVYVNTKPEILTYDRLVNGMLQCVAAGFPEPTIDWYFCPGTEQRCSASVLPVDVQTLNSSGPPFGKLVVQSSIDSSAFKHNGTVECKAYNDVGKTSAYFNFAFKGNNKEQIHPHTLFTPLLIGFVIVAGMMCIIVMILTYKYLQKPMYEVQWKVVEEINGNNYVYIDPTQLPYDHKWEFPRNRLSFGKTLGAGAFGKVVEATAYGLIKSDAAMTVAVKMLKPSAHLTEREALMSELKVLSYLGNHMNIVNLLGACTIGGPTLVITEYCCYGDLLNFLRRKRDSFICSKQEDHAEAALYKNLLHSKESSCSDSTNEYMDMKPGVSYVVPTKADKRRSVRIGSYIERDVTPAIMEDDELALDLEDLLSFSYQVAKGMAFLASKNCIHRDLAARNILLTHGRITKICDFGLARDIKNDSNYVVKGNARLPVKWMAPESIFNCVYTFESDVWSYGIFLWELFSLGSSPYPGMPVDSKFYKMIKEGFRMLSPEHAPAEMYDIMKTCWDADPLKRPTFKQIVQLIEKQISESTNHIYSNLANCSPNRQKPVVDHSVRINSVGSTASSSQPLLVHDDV
Sequence of hERG (KCNH2) (Q12809 whole entry): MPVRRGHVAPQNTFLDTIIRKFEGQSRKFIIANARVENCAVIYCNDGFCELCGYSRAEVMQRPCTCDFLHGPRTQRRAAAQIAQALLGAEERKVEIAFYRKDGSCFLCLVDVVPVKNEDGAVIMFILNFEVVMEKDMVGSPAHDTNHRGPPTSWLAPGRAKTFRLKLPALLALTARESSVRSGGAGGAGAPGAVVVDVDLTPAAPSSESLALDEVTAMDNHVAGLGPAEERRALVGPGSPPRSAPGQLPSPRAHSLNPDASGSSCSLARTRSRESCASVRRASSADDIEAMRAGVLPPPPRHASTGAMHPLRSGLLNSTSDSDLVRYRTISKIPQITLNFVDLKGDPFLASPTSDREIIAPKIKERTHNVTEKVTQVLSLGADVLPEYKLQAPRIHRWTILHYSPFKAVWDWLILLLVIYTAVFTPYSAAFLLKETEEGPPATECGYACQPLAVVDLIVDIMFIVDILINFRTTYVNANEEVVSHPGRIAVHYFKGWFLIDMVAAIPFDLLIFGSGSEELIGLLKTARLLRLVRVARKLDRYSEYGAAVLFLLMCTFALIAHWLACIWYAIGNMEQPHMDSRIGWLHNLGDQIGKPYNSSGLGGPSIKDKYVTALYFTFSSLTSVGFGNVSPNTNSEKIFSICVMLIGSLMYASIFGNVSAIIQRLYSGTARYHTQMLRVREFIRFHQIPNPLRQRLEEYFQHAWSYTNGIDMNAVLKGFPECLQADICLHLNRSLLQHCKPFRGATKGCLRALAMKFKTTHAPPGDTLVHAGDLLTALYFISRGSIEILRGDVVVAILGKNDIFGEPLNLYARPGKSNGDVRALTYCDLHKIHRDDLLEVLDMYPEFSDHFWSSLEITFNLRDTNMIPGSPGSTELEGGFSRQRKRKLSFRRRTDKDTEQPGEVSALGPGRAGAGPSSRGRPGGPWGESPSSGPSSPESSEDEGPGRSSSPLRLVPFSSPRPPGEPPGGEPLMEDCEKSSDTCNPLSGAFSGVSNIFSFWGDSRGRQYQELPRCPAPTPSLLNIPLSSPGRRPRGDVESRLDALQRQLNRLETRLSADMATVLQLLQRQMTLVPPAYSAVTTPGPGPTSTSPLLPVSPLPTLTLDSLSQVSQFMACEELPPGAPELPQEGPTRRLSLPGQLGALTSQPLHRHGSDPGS
Description for MV4-11: Antiproliferative activity against human MV4-11 cells assessed as reduction in cell viability incubated for 72 hrs by CellTiter 96 Aqueous One Solution Cell Proliferation Assay

One may read the IC50 as the concentration that inhibits the measured activity by half. A higher IC50 goes with lower potency. One may read the inhibition as how much of the control response was suppressed. With `CN1CCc2cc(Nc3ncc(C(F)(F)F)c(N[C@H]4CC[C@@H](N)CC4)n3)ccc2C1=O`, the Ratio IC50 in data set [1] was 4150. The IC50 in data set [2] was 1.15 nM; in the data set with MV4-11 it was 1.2 nM; in data set [5], 4770 nM; in data set [7] it was 11.7 nM. For the same molecule, the outcome in the data set with BaF3 [3], in the data set with BaF3 [4] and in the data set with BaF3 [6] was Active. The same molecule showed an inhibition at 20 µM on hERG (KCNH2) of 40.9%.
In general, AUC(0-t) refers to exposure summed from dosing to a finite time, without extrapolation to infinity. Low readings indicate less exposure, high ones more exposure. The Tmax is the time at which the peak concentration occurs. In general, AUC(0-inf) refers to the area under the concentration-time curve extrapolated to infinity. The term Cmax denotes the highest concentration seen after dosing. One may read the half-life as how long it takes for the measured level to halve. Lower therefore signals fast loss. In general, MRT inf refers to a mean duration of stay, worked out from the concentration-time curve. On to `CC(C)(O)CC(=O)N1Cc2ccc(Nc3ncc(C(F)(F)F)c(N[C@H]4CC[C@@H](N)CC4)n3)cc2C1`, for which the Ratio IC50 in [1] worked out at 2200. For the same molecule, the IC50 in data set [2] was determined as 1.12 nM; in the data set with MV4-11, 0.48 nM; in [5], 2460 nM; in data set [7], 12.5 nM. This molecule also gave an AUC(0-t) in data set [8] of 99.6 ng·h/mL. The result with BaF3 [3], with BaF3 [4] and in the data set on BaF3 [6] was Active. Besides, in [9], the Tmax stood at 1 h. Moreover, the AUC(0-inf) in data set [10] amounted to 104 ng·h/mL. Further, the Cmax in [11] was determined as 42.5 ng/mL. This molecule returned an inhibition at 20 µM against hERG (KCNH2) of 19.3%. In addition, the half-life in data set [12] is 0.81 h. Further, the MRT inf in data set [13] is 1.67 h.
Consider `C[C@H](O)C(=O)N1CCc2cc(Nc3ncc(C(F)(F)F)c(N[C@H]4CC[C@@H](N)CC4)n3)ccc2C1`, for which the Ratio IC50 in data set [1] was determined as 766. The IC50 is 0.92 nM in data set [2], 0.28 nM with MV4-11, 704 nM in [5] and 5.1 nM in data set [7]. Also, on hERG (KCNH2), the inhibition at 20 µM is 13.6%.
`CC(=O)N1Cc2ccc(Nc3ncc(C(F)(F)F)c(N[C@H]4CC[C@@H](N)CC4)n3)cc2C1`: the Ratio IC50 in [1] came out at 1370. The IC50 was determined as 1.63 nM in [2], 0.34 nM in the data set on MV4-11, 2240 nM in data set [5] and 13.1 nM in data set [7]. In addition, in data set [8], the AUC(0-t) was found to be 97.8 ng·h/mL. For the same molecule, the outcome with BaF3 [3], in the data set with BaF3 [4] and in the data set with BaF3 [6] was Active. Further, the Tmax in data set [9] stood at 2 h. For the same molecule, the AUC(0-inf) in [10] was found to be 103 ng·h/mL. The same molecule had a Cmax in [11] of 32 ng/mL. Testing at 20 µM against hERG (KCNH2) gave an inhibition of 28.3%. The molecule also had a half-life in [12] of 1.21 h. In addition, the MRT inf in [13] stood at 2.29 h.
On to `CC(C)(O)C(=O)N1CCc2ccc(Nc3ncc(C(F)(F)F)c(N[C@H]4CC[C@@H](N)CC4)n3)cc2C1`, for which, in [1], the Ratio IC50 stood at 4030. In addition, the IC50 in data set [2] stood at 2.21 nM; in the data set on MV4-11 it was 0.93 nM; in data set [5], 8910 nM; in [7] it was 14 nM. In data set [8], this molecule yielded an AUC(0-t) of 18.6 ng·h/mL. Also, the outcome in the data set with BaF3 [3], with BaF3 [4] and in the data set on BaF3 [6] was Active. Besides, the Tmax in data set [9] was 0.25 h. The AUC(0-inf) in data set [10] stood at 57.5 ng·h/mL. In data set [11], the highest level (Cmax) was 4.06 ng/mL. Moreover, the inhibition at 20 µM at hERG (KCNH2) came out at 28.1%. The half-life in [12] was 9.08 h. The molecule also showed an MRT inf in data set [13] of 13.9 h.
Regarding `N[C@H]1CC[C@@H](Nc2nc(Nc3ccc4c(c3)CCN(C(=O)CO)C4)ncc2C(F)(F)F)CC1`, in data set [1], the Ratio IC50 came out at 4420. The IC50 in data set [2] amounted to 0.46 nM; in the data set on MV4-11, 0.28 nM; in data set [5] it was 2030 nM; in data set [7], 17.6 nM. The AUC(0-t) in data set [8] is 340 ng·h/mL. Further, the outcome with BaF3 [3], in the data set on BaF3 [4] and in the data set with BaF3 [6] was Active. The Tmax in data set [9] was 1 h. In data set [10], this molecule gave an AUC(0-inf) of 411 ng·h/mL. Besides, in data set [11], the concentration peaked (Cmax) at 162 ng/mL. At hERG (KCNH2), this molecule returned an inhibition at 20 µM of 10.4%. The same molecule had a half-life in data set [12] of 2.3 h. The molecule further returned an MRT inf in data set [13] of 3.43 h.
`CC(=O)N1CCc2cc(Nc3ncc(C(F)(F)F)c(N[C@H]4CC[C@@H](N)CC4)n3)ccc2C1`: the Ratio IC50 in [1] is 1240. The IC50 in data set [2] was 0.87 nM; in the data set on MV4-11, 0.07 nM; in data set [5], 1080 nM; in [7], 7.6 nM. Besides, the AUC(0-t) in data set [8] amounted to 1080 ng·h/mL. Also, the outcome in the data set with BaF3 [3], in the data set with BaF3 [4] and with BaF3 [6] was Active. For the same molecule, the Tmax in data set [9] is 2 h. The molecule further gave an AUC(0-inf) in data set [10] of 1100 ng·h/mL. The molecule further came in with a Cmax in data set [11] of 555 ng/mL. Moreover, the inhibition at 20 µM against hERG (KCNH2) stood at 33.2%. Further, in [12], the half-life is 0.81 h. In [13], this molecule yielded an MRT inf of 2.22 h.
As for `CC(C)(O)C(=O)N1CCc2cc(Nc3ncc(C(F)(F)F)c(N[C@H]4CC[C@@H](N)CC4)n3)ccc2C1`, the Ratio IC50 in data set [1] was 589. The IC50 in [2] was 1.53 nM; in the data set with MV4-11 it was 0.38 nM; in [5], 902 nM; in [7], 8.6 nM. At hERG (KCNH2), this molecule displayed an inhibition at 20 µM of 17.7%.
Turning to `CC(C)(O)CC(=O)N1CCc2cc(Nc3ncc(C(F)(F)F)c(N[C@H]4CC[C@@H](N)CC4)n3)ccc21`, the Ratio IC50 in data set [1] was 1760. The IC50 worked out at 2.88 nM in data set [2], 2.21 nM with MV4-11, 5060 nM in data set [5] and 19 nM in data set [7]. Also, the result in the data set on BaF3 [3], in the data set on BaF3 [4] and in the data set with BaF3 [6] was Active.
For `CC(=O)N1CCc2cc(Nc3ncc(C(F)(F)F)c(N[C@H]4CC[C@@H](N)CC4)n3)ccc21`, the Ratio IC50 in data set [1] stood at 4870. Further, the IC50 in data set [2] is 0.98 nM; in the data set with MV4-11, 2.07 nM; in [5], 4780 nM; in data set [7] it was 10.7 nM. The outcome with BaF3 [3], in the data set with BaF3 [4] and in the data set with BaF3 [6] was Active.
For `N[C@H]1CC[C@@H](Nc2nc(Nc3ccc4c(c3)CN(C(=O)CO)C4)ncc2C(F)(F)F)CC1`, the Ratio IC50 in data set [1] amounted to 1870. Moreover, the IC50 turned out to be 1.06 nM in [2], 0.14 nM in the data set with MV4-11, 1990 nM in [5] and 7.6 nM in data set [7]. The outcome in the data set on BaF3 [3], in the data set with BaF3 [4] and in the data set with BaF3 [6] was Active.
Regarding `CC(C)(O)CC(=O)N1CCc2ccc(Nc3ncc(C(F)(F)F)c(N[C@H]4CC[C@@H](N)CC4)n3)cc2C1`, the Ratio IC50 in data set [1] is 1820. In addition, the IC50 was 2.11 nM in [2], 0.44 nM with MV4-11, 3840 nM in data set [5] and 9.9 nM in data set [7]. In addition, the result in the data set with BaF3 [3], with BaF3 [4] and in the data set on BaF3 [6] was Active. Also, the inhibition at 20 µM on hERG (KCNH2) came to 43.9%.
As for `CC(=O)N1CCc2ccc(Nc3ncc(C(F)(F)F)c(N[C@H]4CC[C@@H](N)CC4)n3)cc2C1`, the Ratio IC50 in data set [1] is 3720. Also, the IC50 worked out at 1.24 nM in [2], 0.35 nM in the data set on MV4-11, 4620 nM in [5] and 7.61 nM in data set [7]. The result in the data set on BaF3 [3], in the data set with BaF3 [4] and with BaF3 [6] was Active. The molecule further yielded an inhibition at 20 µM at hERG (KCNH2) of 43.4%.
Consider `CC(C)(O)CC(=O)N1CCc2cc(Nc3ncc(C(F)(F)F)c(NCCCN)n3)ccc2C1`, for which the results for the concentration for half-maximal inhibition (IC50) (in data set [2]; with MV4-11; in [7]) were 3.79 nM, 2.38 nM and 34.5 nM, respectively. On hERG (KCNH2), this molecule displayed an inhibition at 20 µM of 11.2%.
